What was measured:
[1] = target: T1, wild type (WT) MET kinase (Homo sapiens, UniProt P08581); assay: Kinase inhibition experiment (HTRF KinEASE-TK kit), wild-type MET; assay type: biochemical; settings: 10 concentrations, 3-fold dilution
T1 construct: purchased Carna 08-151
Method: (§1) The activity of the compounds was determined by detecting the residual amount of ATP after reacting with wild-type or mutant MET protein kinase by using an HTRF KinEASE-TK kit. […]
(§2) The compounds were determined on the selected kinase, the solvent control was set and a total of 10 concentrations were detected, diluted 3-fold, 2 replicates per concentration.
(§3) 1 volume of 5× kinase reaction buffer and 4 volumes of water; 5 mM MgCl2; 1 mM DTT; 1 mM MnCl2; or 2500 nm SEB.
(§4) 1) 10 nl or 4 μlof the diluted compound was transferred to each well of the reaction plate (784075 or 264706, Greiner or Thermo) with a pipette, the reaction plate was sealed with a sealing plate, and centrifuged at 1000 for 1 minute.
(§5) 2) 2× MET was prepared from 1× enzyme reaction buffer, 5 μl or 2 μl kinase was added to each well of the reaction plate, the reaction plate was sealed with a sealing plate, centrifuged at 1000 g for 30 seconds and incubated at room temperature for 10 min.
(§6) 3) a mixed solution of 2× TK-substrate-biotin and ATP were prepared from 1× enzyme reaction buffer solution, 5 μl or 2 μl TK-substrate-biotin/ATP of the mixed solution was added into a reaction plate, the reaction plate was sealed with a sealing plate, centrifuged at 1000 g for 30 seconds and reacted for 50 minutes or 10 minutes at room temperature.
(§7) 4) a mixed solution of 4× or 2× Sa-XL 665 and TK-antibody-Cryptate were prepared from HTRF detection buffer, 5 or 10 μl of the mixed solution of Sa-XL 665 and TK-antibody-Cryptate was added into each well, centrifuged at 1000 g for 30 seconds, and reacted at room temperature for 1 h.
(§8) 5) the fluorescence signals at 615 nm (cryptate) and 665 nm (XL665) were read with Envision 2104 or TECAN.
(§9) The data was analyzed using GraphPad Prism 6.0 or 7 software, and the dose-response curve was fitted with nonlinear S-curve regression, and the IC50 value was calculated therefrom.
(§10) Enzyme Inhibition Percent (%)=100-(Signalmpd-SignalAve_PC)/(SignalAve_VC-SignalAve_PC)×100

MET F1200I = target: T2, MET F1200I (Homo sapiens, UniProt P08581, F1200I); assay: Kinase inhibition experiment (HTRF KinEASE-TK kit), mutant MET F1200I; assay type: biochemical; settings: 10 concentrations, 3-fold dilution
T2 construct: purchased Signalchem M52-12GG/Y767-2
T2 sequence (P08581 25-1390 F1200I): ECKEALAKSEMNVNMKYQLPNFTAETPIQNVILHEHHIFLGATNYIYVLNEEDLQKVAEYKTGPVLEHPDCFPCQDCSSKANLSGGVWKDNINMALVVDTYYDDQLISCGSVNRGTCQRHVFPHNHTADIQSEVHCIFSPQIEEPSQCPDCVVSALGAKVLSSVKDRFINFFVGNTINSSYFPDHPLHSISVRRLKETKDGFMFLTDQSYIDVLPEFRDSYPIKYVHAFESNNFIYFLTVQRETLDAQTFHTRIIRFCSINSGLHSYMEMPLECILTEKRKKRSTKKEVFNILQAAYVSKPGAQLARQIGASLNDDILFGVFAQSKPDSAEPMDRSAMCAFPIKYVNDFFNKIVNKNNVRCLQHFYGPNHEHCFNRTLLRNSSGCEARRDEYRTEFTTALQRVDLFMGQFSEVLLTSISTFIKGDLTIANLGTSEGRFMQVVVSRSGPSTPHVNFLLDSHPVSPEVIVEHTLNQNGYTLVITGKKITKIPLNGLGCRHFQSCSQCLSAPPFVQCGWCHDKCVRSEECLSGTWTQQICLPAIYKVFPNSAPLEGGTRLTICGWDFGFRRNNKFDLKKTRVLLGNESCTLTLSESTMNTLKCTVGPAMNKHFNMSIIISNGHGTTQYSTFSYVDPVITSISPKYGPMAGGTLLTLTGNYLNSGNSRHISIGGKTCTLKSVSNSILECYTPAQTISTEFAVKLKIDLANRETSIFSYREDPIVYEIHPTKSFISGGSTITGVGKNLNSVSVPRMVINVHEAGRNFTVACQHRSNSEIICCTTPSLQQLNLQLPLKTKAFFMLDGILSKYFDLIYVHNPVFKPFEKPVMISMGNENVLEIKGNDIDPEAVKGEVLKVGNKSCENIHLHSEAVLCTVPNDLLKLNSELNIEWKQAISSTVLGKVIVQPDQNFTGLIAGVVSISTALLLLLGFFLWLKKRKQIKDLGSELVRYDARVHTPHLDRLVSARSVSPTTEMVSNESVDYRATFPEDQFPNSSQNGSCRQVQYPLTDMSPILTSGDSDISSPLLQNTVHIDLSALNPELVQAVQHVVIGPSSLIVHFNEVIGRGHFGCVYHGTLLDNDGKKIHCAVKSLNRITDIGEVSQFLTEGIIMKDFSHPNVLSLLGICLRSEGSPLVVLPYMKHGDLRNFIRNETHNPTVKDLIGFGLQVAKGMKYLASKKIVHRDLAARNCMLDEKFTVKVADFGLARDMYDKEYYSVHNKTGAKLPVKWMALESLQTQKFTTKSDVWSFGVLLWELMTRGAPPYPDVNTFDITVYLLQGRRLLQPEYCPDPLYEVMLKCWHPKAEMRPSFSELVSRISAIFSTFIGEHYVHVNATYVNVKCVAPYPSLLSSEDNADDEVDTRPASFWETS
Method: as §1, §2, §3, §4, §5, §6, §7, §8, §9, §10

MET D1228N = target: T3, MET D1228N (Homo sapiens, UniProt P08581, D1228N); assay: Kinase inhibition experiment (HTRF KinEASE-TK kit), mutant MET D1228N; assay type: biochemical; settings: 10 concentrations, 3-fold dilution
T3 construct: purchased Signalchem M52-12IG
T3 sequence (P08581 25-1390 D1228N): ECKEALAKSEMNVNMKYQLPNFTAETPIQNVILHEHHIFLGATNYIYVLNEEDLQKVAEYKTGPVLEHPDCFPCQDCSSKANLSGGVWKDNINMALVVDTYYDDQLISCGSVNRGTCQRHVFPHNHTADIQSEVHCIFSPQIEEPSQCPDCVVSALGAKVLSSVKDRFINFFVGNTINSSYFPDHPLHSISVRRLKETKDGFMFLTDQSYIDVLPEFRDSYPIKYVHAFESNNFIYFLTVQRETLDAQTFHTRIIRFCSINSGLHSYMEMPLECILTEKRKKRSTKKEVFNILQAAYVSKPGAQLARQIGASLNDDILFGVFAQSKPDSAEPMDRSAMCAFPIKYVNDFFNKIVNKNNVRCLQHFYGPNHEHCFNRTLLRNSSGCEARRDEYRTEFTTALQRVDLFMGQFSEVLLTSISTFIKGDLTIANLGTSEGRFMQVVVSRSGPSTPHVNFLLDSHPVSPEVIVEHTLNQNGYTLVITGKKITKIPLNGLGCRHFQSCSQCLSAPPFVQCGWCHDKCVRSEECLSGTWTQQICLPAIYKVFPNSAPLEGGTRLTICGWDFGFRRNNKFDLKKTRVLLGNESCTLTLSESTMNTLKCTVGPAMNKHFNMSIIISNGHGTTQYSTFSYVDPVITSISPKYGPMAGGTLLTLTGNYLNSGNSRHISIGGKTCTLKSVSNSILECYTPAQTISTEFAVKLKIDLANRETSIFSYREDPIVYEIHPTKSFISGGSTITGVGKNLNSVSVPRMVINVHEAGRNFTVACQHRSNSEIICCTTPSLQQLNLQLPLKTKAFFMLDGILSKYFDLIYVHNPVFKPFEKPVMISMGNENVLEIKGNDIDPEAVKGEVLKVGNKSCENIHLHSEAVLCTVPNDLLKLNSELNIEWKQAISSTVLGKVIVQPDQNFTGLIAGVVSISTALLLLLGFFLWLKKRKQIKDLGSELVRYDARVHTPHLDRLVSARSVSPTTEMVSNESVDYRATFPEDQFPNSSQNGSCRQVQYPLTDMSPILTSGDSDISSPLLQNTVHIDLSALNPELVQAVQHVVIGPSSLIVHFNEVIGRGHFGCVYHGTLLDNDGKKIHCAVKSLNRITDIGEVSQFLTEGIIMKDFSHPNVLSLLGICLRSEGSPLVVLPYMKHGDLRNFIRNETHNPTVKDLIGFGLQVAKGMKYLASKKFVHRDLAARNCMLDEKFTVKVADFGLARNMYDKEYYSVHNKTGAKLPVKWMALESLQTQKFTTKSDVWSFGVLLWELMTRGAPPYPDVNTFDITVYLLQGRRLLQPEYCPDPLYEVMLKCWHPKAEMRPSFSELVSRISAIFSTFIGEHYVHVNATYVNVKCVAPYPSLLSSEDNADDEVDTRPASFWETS
Method: as §1, §2, §3, §4, §5, §6, §7, §8, §9, §10

Hs746T cell line = assay: Cell proliferation inhibition experiment (CellTiter-Glo), Hs746T; assay type: cell-based; settings: Homo sapiens, Hs 746T, CTG, 72 h
Method: (§11) CellTiter-Glo™ live cell detection kit adopts luciferase as the detection substance, and the luciferase needs the participation of ATP in the luminescence process. CellTiter-Glo™ reagent was added into the cell culture medium and the luminescence value was measured. The light signal is in direct proportion to the amount of ATP in the system, ATP is in direct correlation with number of living cells. Therefore, the proliferation of cells can be detected by detecting the content of ATP with CellTiter-Glo kit.
(§12) In the experiment, the proliferation inhibition effect of the prepared compounds on tumor cell lines Hs746T, EBC-1 and H1993 was measured by a celltiter-glo (CTG) method, and 50% inhibition concentration IC50 was calculated.
(§13) The compounds were determined on the selected cells, the solvent control was set and a total of 10 concentrations were detected, 2 replicates per concentration.
(§14) a) Cells in the logarithmic growth phase were harvested and counted by a […]. The cell viability was detected by a trypan blue exclusion method to ensure that the cell viability was over 90%.
(§15) b) The cell concentration was adjusted; 30 μL of cell suspension was added to a 384-well plate respectively.
(§16) c) Cells in a 384-well plate were incubated overnight at 37° C., 5% CO2 and 95% humidity.
(§17) a) 10 times of drug solution was prepared with the highest concentration of 10 mM, 10 concentrations and 3 times dilution, 10 μL of drug solution was added into each well of a 384-well plate inoculated with cells, and three multiple wells were arranged for each drug concentration. DMSO was the blank control.
(§18) b) The cells in the 384-well plate were incubated for a further 72 h at 37° C., 5% CO2 and 95% humidity before CTG analysis.
(§19) a) The CTG reagent was melted and the cell plate was equilibrated to room temperature for 30 min.
(§20) b) An equal volume of CTG solution was added to each well.
(§21) c) Cells were lysed by shaking on an orbital shaker for 5 minutes.
(§22) d) The cell plate was left at room temperature for 20 minutes to stabilize the luminescence signal.
(§23) e) The cold light value was read.
(§24) The data was analyzed by GraphPad Prism 8 software, and the dose-response curve was fitted with nonlinear S-curve regression, and the IC50 value was calculated therefrom.
(§25) Cell viability(%)=(Lumdrugs to be tested-Lumblank control)/(Lumcell control-Lumblank control)×100%.

H1993 cell line = assay: Cell proliferation inhibition experiment (CellTiter-Glo), H1993; assay type: cell-based; settings: Homo sapiens, NCI-H1993, CTG, 72 h
Method: as §11, §12, §13, §14, §15, §16, §17, §18, §19, §20, §21, §22, §23, §24, §25

EBC-1 cell line = assay: Cell proliferation inhibition experiment (CellTiter-Glo), EBC-1; assay type: cell-based; settings: Homo sapiens, CTG, 72 h
Method: as §11, §12, §13, §14, §15, §16, §17, §18, §19, §20, §21, §22, §23, §24, §25

T1 sequence (P08581 25-1390): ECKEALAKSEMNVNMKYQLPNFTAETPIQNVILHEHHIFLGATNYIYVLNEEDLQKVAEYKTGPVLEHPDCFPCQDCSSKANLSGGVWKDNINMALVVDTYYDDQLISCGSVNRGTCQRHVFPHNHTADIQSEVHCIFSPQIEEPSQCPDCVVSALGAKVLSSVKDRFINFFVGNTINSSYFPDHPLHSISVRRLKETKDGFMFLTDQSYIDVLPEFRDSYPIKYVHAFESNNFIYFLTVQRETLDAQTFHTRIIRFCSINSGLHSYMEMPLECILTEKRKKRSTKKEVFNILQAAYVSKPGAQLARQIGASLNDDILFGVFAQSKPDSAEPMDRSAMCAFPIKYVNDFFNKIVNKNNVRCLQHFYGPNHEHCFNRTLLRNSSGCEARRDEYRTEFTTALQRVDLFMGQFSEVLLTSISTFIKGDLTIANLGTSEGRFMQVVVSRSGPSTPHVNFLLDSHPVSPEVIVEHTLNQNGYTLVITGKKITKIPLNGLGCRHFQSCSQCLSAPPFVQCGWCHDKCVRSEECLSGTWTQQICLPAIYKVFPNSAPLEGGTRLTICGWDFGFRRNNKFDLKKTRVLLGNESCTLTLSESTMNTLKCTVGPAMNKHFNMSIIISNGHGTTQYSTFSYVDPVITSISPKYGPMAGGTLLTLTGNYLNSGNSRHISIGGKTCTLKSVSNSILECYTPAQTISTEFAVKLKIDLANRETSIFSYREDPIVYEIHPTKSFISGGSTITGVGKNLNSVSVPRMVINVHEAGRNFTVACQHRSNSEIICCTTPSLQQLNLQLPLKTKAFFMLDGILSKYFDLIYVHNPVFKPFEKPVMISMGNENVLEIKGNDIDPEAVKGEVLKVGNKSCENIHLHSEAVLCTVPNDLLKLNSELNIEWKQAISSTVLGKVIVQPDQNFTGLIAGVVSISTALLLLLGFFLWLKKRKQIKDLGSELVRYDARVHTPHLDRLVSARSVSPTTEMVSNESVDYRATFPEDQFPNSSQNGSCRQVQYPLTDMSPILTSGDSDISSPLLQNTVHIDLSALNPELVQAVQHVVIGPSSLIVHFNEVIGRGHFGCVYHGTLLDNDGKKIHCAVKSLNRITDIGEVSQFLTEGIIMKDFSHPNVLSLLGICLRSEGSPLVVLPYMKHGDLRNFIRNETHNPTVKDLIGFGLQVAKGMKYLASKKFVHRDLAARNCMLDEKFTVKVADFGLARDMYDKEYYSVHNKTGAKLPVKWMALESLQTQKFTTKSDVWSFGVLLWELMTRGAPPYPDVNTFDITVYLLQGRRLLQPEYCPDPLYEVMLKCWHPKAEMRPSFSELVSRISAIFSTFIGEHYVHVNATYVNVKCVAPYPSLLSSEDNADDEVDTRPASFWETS

Compound	IC50 [1]	IC50 (MET F1200I)	IC50 (MET D1228N)	IC50 (Hs746T cell line)	IC50 (H1993 cell line)	IC50 (EBC-1 cell line)
C[C@H](CO)Nc1n[nH]c2nccc(Oc3ccc(NC(=O)c4cccc(-c5ccc(F)cc5)[n+]4[O-])cc3F)c12 [Final Product 2, (R)-2-((3-fluoro-4-((3-((1-hydroxypropan-2-yl)amino)-1H-pyrazolo[3,4-b]pyridin-4-yl)oxy)phenyl)carbamoyl)-6-(4-fluorophenyl)pyridine 1-oxide]	0.9 nM	3 nM	18 nM	8.5 nM	31.8 nM	12.6 nM
CCC(CO)Nc1n[nH]c2nccc(Oc3ccc(NC(=O)c4cccc(-c5ccc(F)cc5)[n+]4[O-])cc3F)c12 (centres unmarked) [Final product 4]	2.2 nM	10 nM	15.7 nM	12.6 nM	54.9 nM	14.4 nM
CC(C)(O)CNc1n[nH]c2nccc(Oc3ccc(NC(=O)c4cccc(-c5ccc(F)cc5)[n+]4[O-])cc3F)c12 [Final product 10]	4.7 nM	30.9 nM	13.6 nM	29.1 nM	–	52.5 nM
O=C(Nc1ccc(Oc2ccnc3[nH]nc(NCC(O)CO)c23)c(F)c1)c1cccc(-c2ccc(F)cc2)[n+]1[O-] (centres unmarked) [Final product 15]	1.3 nM	6.5 nM	20.1 nM	21.6 nM	39.4 nM	–
O=C(Nc1ccc(Oc2ccnc3[nH]nc(NC4COCC4O)c23)c(F)c1)c1cccc(-c2ccc(F)cc2)[n+]1[O-] (centres unmarked) [Final product 24]	2.5 nM	9.5 nM	29.5 nM	14.5 nM	–	20.1 nM
O=C(Nc1ccc(Oc2ccnc3[nH]nc(N4CCC(CO)CC4)c23)c(F)c1)c1cccc(-c2ccc(F)cc2)[n+]1[O-] [Final product 28]	3 nM	9.6 nM	34.5 nM	14 nM	–	17.1 nM
O=C(Nc1ccc(Oc2ccnc3[nH]nc(N4CCC[C@@H](CO)C4)c23)c(F)c1)c1cccc(-c2ccc(F)cc2)[n+]1[O-] [Final product 32]	4.4 nM	10.1 nM	16.7 nM	–	30.6 nM	–
O=C(Nc1ccc(Oc2ccnc3[nH]nc(N4CC5(CC(O)C5)C4)c23)c(F)c1)c1cccc(-c2ccc(F)cc2)[n+]1[O-] [Final product 36]	4 nM	6.7 nM	25.1 nM	9.9 nM	–	15.1 nM
C[C@H](CO)Nc1n[nH]c2nccc(Oc3ccc(NC(=O)c4cccc(-c5ccc(F)cc5F)[n+]4[O-])cc3F)c12 [Final product 44]	2.5 nM	6.7 nM	14.8 nM	15.2 nM	85.3 nM	21.3 nM
C[C@H](CO)Nc1n[nH]c2nccc(Oc3ccc(NC(=O)c4ccc(F)c(-c5ccc(F)cc5)[n+]4[O-])cc3F)c12 [Final product 53]	2 nM	8.7 nM	4.8 nM	14.6 nM	29 nM	15.7 nM
C[C@H](CO)Nc1n[nH]c2nccc(Oc3ccc(NC(=O)c4ccc(Cl)c(-c5ccc(F)cc5)[n+]4[O-])cc3F)c12 [Final product 57]	1.6 nM	2.8 nM	28.5 nM	11.4 nM	59.5 nM	19.6 nM
CC[C@H](CO)Nc1n[nH]c2nccc(Oc3ccc(NC(=O)c4ccc(Cl)c(-c5ccc(F)cc5)[n+]4[O-])cc3F)c12 [Final product 58]	4.9 nM	16.1 nM	15.9 nM	12.8 nM	16.4 nM	13.2 nM
O=C(Nc1ccc(Oc2ccnc3[nH]nc(N[C@@H]4CCC(O)C4)c23)c(F)c1)c1ccc(Cl)c(-c2ccc(F)cc2)[n+]1[O-] (some centres unmarked) [Final product 63]	4.7 nM	13.1 nM	26.6 nM	4.6 nM	–	13.4 nM
Cc1ccc(C(=O)Nc2ccc(Oc3ccnc4[nH]nc(NCC5(O)CC5)c34)c(F)c2)[n+]([O-])c1-c1ccc(F)cc1 [Final product 70]	6.9 nM	–	35.5 nM	24.4 nM	12 nM	–
CC(O)C1CN(c2n[nH]c3nccc(Oc4ccc(NC(=O)c5cccc(-c6ccc(F)cc6)[n+]5[O-])cc4Cl)c23)C1 (centres unmarked) [Final product 107]	1.6 nM	12.3 nM	26.8 nM	–	76.9 nM	–
C[C@H](CO)Nc1n[nH]c2nccc(Oc3ccc(NC(=O)c4ccc(Cl)c(-c5ccc(F)cc5)[n+]4[O-])cc3Cl)c12 [Final product 121]	4.3 nM	11.4 nM	19 nM	–	42.3 nM	–
C[C@H](CO)Nc1n[nH]c2nccc(Oc3ccc(NC(=O)c4ccc(OC(F)F)c(-c5ccc(F)cc5)[n+]4[O-])cc3Cl)c12 [Final product 139]	4.5 nM	15.3 nM	18.5 nM	–	31.1 nM	–
C[C@H](CO)Nc1n[nH]c2nccc(Oc3ccc(NC(=O)c4ccc(Cl)c(-c5ccc(F)cc5)[n+]4[O-])c(F)c3)c12 [Final product 159]	3 nM	2 nM	14.8 nM	–	78.4 nM	–
O=C(Nc1ccc(Oc2ncnc3ccn(CCCO)c23)c(F)c1)c1cccc(-c2ccc(F)cc2)[n+]1[O-] [Final product 168, 2-((3-fluoro-4-((5-(3-hydroxypropyl)-5H-pyrrolo[3,2-d]pyrimidin-4-yl)oxy)phenyl)carbamoyl)-6-(4-fluorophenyl)pyridine 1-oxide]	3.8 nM	9.2 nM	13.9 nM	65.4 nM	–	56.7 nM
